This is an account of results in the SangsterLogP compilation.

As usually defined, the logD is lipophilicity at a set pH, counting ionised and neutral species. Read a low logD as a more hydrophilic compound.

The nature of this data set: from Ebert, E.; Eckhardt, W.; Jakel, K.; Moser, P.; Sozzi, D.; Vogel, C. (1989). Quantitative structure-activity relationships of fungicidally active triazoles: analogs and stereoisomers of propiconazole …. As to conditions: pH 7.0.

Molecules are shown by their SMILES.

`CCC1COC(Cn2cncn2)(c2ccc(NC(=O)NC)cc2)O1` (stereo not given) had a logD of 0.62.
On to `CC1COC(Cn2cncn2)(c2ccc(-n3cncn3)cc2Cl)O1` (stereo not given), for which the logD was determined as 1.28.
Consider `CCC1COC(Cn2cncn2)(c2ccc([N+](=O)[O-])cc2)O1` (stereo not given), for which the logD was 1.52.
Consider `COCCOCC1COC(Cn2cncn2)(c2ccc(Cl)cc2Cl)O1` (stereo not given), for which the logD was 2.03.
In the case of `OCC1COC(Cn2cncn2)(c2ccc(Cl)cc2Cl)O1` (stereo not given) it was 1.76; in that of `CCC1COC(Cn2cncn2)(c2ccc(-c3ccccc3)cc2)O1` (stereo not given), 3.71.
As for `Cc1ccc(C2(Cn3cncn3)OCCO2)cc1`, the figure is 1.55.
In the case of `CCC1COC(Cn2cncn2)(c2ccc(NC(=O)C(F)(F)F)cc2)O1` (stereo not given) it was 1.08; in that of `CCC1COC(Cn2cncn2)(c2ccc(NC(=O)c3ccc([N+](=O)[O-])cc3)cc2)O1` (stereo not given), 2.17; in that of `CCC1COC(Cn2cncn2)(c2ccc(Cl)cc2Cl)O1` (stereo not given), 3.03.
